This note sets out measurements from patent US9133187B2, “Serine/threonine kinase inhibitors” (ARRAY BIOPHARMA INC., priority 2011, dated 2015).

Structures are written as SMILES.

Experiment [1] deals with human ERK-2 (Mitogen Activated Kinase 1) (Homo sapiens (Human), UniProt P28482). The experiment can be described thus: ERK-2 Enzymatic Assay. The class given is biochemical. The note with it: 5 nM ERK-2, 25 μM ATP, Omnia peptide S/T17; read-out: ERK Inhibition IC50. The gist of the method:
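Recombinant N-terminal 6-His human ERK-2 (aa 8-360, E. coli) with fluorescent Omnia peptide S/T17 substrate, ambient temperature, read kinetically every 50 s for ~30 min (Ex 340/Em 495 nm). Linear rates converted to percent of control; IC50 from four-parameter fit.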

For experiment [2], the system named is PMA-stimulated P90RSK(Ser380) phosphorylation in HepG2 cells. Put plainly: Cellular P90RSK(Ser380) Phosphorylation Assay. Type of experiment: cell-based. The note with it: Homo sapiens, 1.5 h compound incubation, PMA stimulation, pP90RSK(Ser380) normalized to GAPDH, read-out: Cell Assay IC50. The procedure, abridged:
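HepG2 cells were pretreated with compound (0.5% DMSO final) for 1.5 h, then stimulated with PMA 100 ng/mL for 30 min at 37° C. Fixed, permeabilized cells were immunostained for pP90RSK(Ser380) and GAPDH. The two-channel infrared fluorescence was read, and the phospho signal was normalized to GAPDH.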

Chain of human ERK-2 (Mitogen Activated Kinase 1) (P28482 8-360): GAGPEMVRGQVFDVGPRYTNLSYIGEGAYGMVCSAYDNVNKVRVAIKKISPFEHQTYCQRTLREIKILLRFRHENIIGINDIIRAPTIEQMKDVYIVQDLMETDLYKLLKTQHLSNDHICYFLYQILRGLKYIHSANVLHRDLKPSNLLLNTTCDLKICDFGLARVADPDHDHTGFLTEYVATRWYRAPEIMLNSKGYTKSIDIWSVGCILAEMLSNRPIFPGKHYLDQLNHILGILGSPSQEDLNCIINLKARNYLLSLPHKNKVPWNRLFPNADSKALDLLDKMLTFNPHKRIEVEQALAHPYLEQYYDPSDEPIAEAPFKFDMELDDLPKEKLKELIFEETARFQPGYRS

The IC50 is the point on the concentration scale where inhibition reaches its midpoint. For `COCCOC[C@@H](NC(=O)N1CCc2cnc(N[C@@H](C)CO)nc2C1)c1ccc(F)c(Cl)c1` [II-78, 2-((S)-2-Hydroxy-1-methyl-ethylamino)-5,8-dihydro-6H-pyrido[3,4-d]pyrimidine-7-carboxylic acid [(S)-1-(3-chloro-4-fluoro-phenyl)-2-(2-methoxy-ethoxy)-ethyl]-amide], the half-maximal inhibitory concentration (IC50) was found to be 17.7 nM in experiment [1] and 1400 nM in experiment [2].
For `O=C(N[C@H](CO)c1ccc(F)c(Cl)c1)N1CCc2cnc(Nc3ccc(Cl)c(F)c3)nc2C1` [II-61, 2-(4-Chloro-3-fluoro-phenylamino)-5,8-dihydro-6H-pyrido[3,4-d]pyrimidine-7-carboxylic acid [(S)-1-(3-chloro-4-fluoro-phenyl)-2-hydroxy-ethyl]-amide], the results for the IC50 in experiment [1] and in experiment [2] were 210 nM and 21300 nM, respectively.
On the same counts, the results for `CC(C)Nc1ncc2c(n1)CN(C(=O)N[C@H](CCO)c1ccc(C(F)(F)F)c(F)c1)CC2` [II-72, 2-Isopropylamino-5,8-dihydro-6H-pyrido[3,4-d]pyrimidine-7-carboxylic acid [(R)-1-(3-fluoro-4-trifluoromethyl-phenyl)-3-hydroxy-propyl]-amide] are 7.2 nM and 208 nM.
As to `CC(C)Nc1ncc2c(n1)CN(C(=O)CCc1ccc(Cl)cc1Cl)CC2` [II-24, 3-(2,4-Dichloro-phenyl)-1-(2-isopropylamino-5,8-dihydro-6H-pyrido[3,4-d]pyrimidin-7-yl)-propan-1-one], the IC50 in experiment [1] worked out at 244 nM; in experiment [2], 50000 nM.
In the case of `C[C@@H](CO)Nc1ncc2c(n1)CN(C(=O)NC1CNCC1c1ccc(C(F)(F)F)cc1)CC2` (mixture of isomers) [II-171, 2-(2-Hydroxy-1-methyl-ethylamino)-5,8-dihydro-6H-pyrido[3,4-d]pyrimidine-7-carboxylic acid [4-(4-trifluoromethyl-phenyl)-pyrrolidin-3-yl]-amide], the 50% inhibitory concentration (IC50) turned out to be 0.7 nM in experiment [1] and 10000 nM in experiment [2].
Regarding `CC(C)Nc1ncc2c(n1)CN(C(=O)N[C@H](CN)c1ccc(F)c(Cl)c1)CC2` [II-7, 2-Isopropylamino-5,8-dihydro-6H-pyrido[3,4-d]pyrimidine-7-carboxylic acid [(S)-2-amino-1-(3-chloro-4-fluoro-phenyl)-ethyl]-amide], the values for the half-inhibitory concentration (IC50) in experiment [1] and in experiment [2] were 1.9 nM and 50000 nM, respectively.
`C[C@@H](NC(=O)N1CCc2cnc(NC3CC(F)(F)C3)nc2C1)c1ccc(Cl)c(Cl)c1` [II-355, 2-(3,3-Difluoro-cyclobutylamino)-5,8-dihydro-6H-pyrido[3,4-d]pyrimidine-7-carboxylic acid [(R)-1-(3,4-dichloro-phenyl)-ethyl]-amide]: the IC50 was determined as 7.5 nM in experiment [1] and 970 nM in experiment [2].
Consider `CNC[C@@H](CC(=O)N1CCc2cnc(NC(C)C)nc2C1)c1ccc(Cl)c(F)c1` [Compound I-17, (S)-3-(4-Chloro-3-fluoro-phenyl)-1-(2-isopropylamino-5,8-dihydro-6H-pyrido[3,4-d]pyrimidin-7-yl)-4-methylamino-butan-1-one], for which the concentration for half-maximal inhibition (IC50) worked out at 3.2 nM in experiment [1] and 281 nM in experiment [2].
On to `O=C(N1CCc2cnc(NC3CCOCC3)nc2C1)N1CCC[C@H]1c1ccccc1` [Compound I-130, (S)-(2-phenylpyrrolidin-1-yl)(2-(tetrahydro-2H-pyran-4-ylamino)-5,6-dihydropyrido[3,4-d]pyrimidin-7(8H)-yl)methanone], for which the half-maximal inhibitory concentration (IC50) in experiment [1] was found to be 123 nM; in experiment [2] it was 10000 nM.
In the same order, the values of `CC(=O)N1CCC[C@H]1[C@@H](NC(=O)N1CCc2cnc(NC(C)C)nc2C1)c1ccc(Cl)c(F)c1` [Compound I-87, N—((S)—((S)-1-acetylpyrrolidin-2-yl)(4-chloro-3-fluorophenyl)methyl)-2-(isopropylamino)-5,6-dihydropyrido[3,4-d]pyrimidine-7(8H)-carboxamide] are 195 nM and 5100 nM.
